Data set [1] is described as follows: Simulated tracking and deployment (ASTM F3320-18) into hydrogel mock-vessel (Examples 14-17). It counts as physicochemical. The note with it: single drug.
Description: In this example, a hydrogel was used to mimic the arterial tissue wall to assess the drug release profile and simulate the tracking and deployment process.
Based on the process described in ASTM F3320-18, folded balloons were pushed through a 37° C. heated anatomical model filled with PBS for 30 seconds. At the end of the track, balloons were then inflated to nominal pressure inside the hydrogel for 1 minute. The PBS inside the track was collected and replaced, and the balloon withdrawn back through the track. The PBS in the track was collected, and the coated balloon was inflated to nominal pressure for a final drug release in methanol for 5 minutes. The drug concentration in the two PBS samples and methanol sample was measured by UV-VIS. This was used to calculate the drug dose delivered to the hydrogel site.
In this example, the drug release profiles of balloons dip coated with methanol solutions containing 20% excipient Pluronic F108 and 8% of either dipyridamole or sirolimus were assessed. After coating, the balloons were dried and folded.
In this example, balloons were spray coated with a methanol solution containing 1% excipient Pluronic F108, and 2% of either dipyridamole or sirolimus. After drying and folding the balloons were sterilised.
Data set [2] can be described thus: Drug release profile of spray-coated balloons, PBS then methanol elution, UV (Example 4). Format: physicochemical. The protocol:
The technique of spray coating was introduced using a 5% solution of high molecular weight polymer PEG-PPO-PEG (Mn=14,600) in methanol. This spray coating method was used to add multiple layers of coating and ensured the correct area of the balloon was coated in a more precise fashion.
In this example, a set of experiments was conducted to assess the drug release profiles of Sirolimus and Dipyridamole. The samples were spray coated with their coating solutions with nitrogen gas at 1 bar, and 20 rotations were done (10 clockwise and 10 anticlockwise). The separation from the balloon and spray nozzle was approximately 15 cm.
The drug release profiles of both Dipyridamole and Sirolimus were determined using an excipient polymer PEG-PPO-PEG (Mn=14,600) with organic carrier solvent methanol. The coating solution quantities can be found in Table 3.
The resulting coated balloons were eluted in 8 mL of PBS for 3 minutes, before being eluted into 8 mL of methanol for 5 minutes, for full release of the coating.

Take `OCCN(CCO)c1nc(N2CCCCC2)c2nc(N(CCO)CCO)nc(N3CCCCC3)c2n1` [dipyridamole]: the “drug lost when tracking to the site” value in data set [1] (dip coated, 20% Pluronic F108 and 8% drug) is given as “considerably less dipyridamole than sirolimus was lost”. Moreover, the “loaded drug released during deployment to the hydrogel target site” value in data set [1] (spray coated, 1% Pluronic F108 and 2% drug, sterilised) is 71.1%. The “Post-PBS reading @415 nm” value in data set [2] (8 mL PBS 3 minutes, spray coated, PEG-PPO-PEG Mn 14,600) is on record as 0.042. Further, the “Post-Methanol reading @415 nm” value in data set [2] (8 mL methanol 5 minutes after PBS elution) is reported as 0.087. Besides, the “drug released during elution time” value in data set [2] (printed '5-minute elution time', from UV reading and calibration coefficient, PEG-PPO-PEG polymer) was 32.6%.

These data come from patent US20260158194A1, “DRUG COATED BALLOON” (ARTERIUS LIMITED, priority 2021, published 2026).
